{"source": "patent US20150297772A1", "about": "“COMPOSITION FOR ODOR REMOVAL AND FRAGRANCE EMISSION COMPRISING COMPLEXES OF CUCURBITURIL AND FRAGRANCE” (POSTECH ACADEMY-INDUSTRY FOUNDATION, priority 2012, published 2015)", "key": {"[1]": {"conditions": "cited from earlier work"}, "[2]": {"assay": "complex formation of cucurbituril homologues with menthol, analyzed by 1H-NMR", "assay_type": "binding", "conditions": "slurry with 11.8 mg menthol and 0.5 mL distilled water, molar ratio 1:1, dried complex", "experimental": "A complex was prepared by mixing 100 mg of cucurbit[7]uril and 11.8 mg of menthol at a molar ratio of 1:1. 79.5 mg of cucurbit[6]uril and 118.3 mg of cucurbit[8]uril were respectively put into two mortars, and 11.8 mg of menthol was added to each of the mortars. 0.5 mL of distilled water was added to form a slurry, and then the slurry was stirred for 10 minutes using a pestle to prepare a complex. The complex was dried in an oven at […] for 6 hours. The dried complex was analyzed by 1H-NMR."}, "[3]": {"assay": "exchange of fragrant molecule for odor molecule in cucurbit[7]uril complex, evaluated by 1H-NMR", "assay_type": "binding", "experimental": "Cucurbit[7]uril was dissolved in distilled water to obtain a 2 mM cucurbit[7]uril aqueous solution. Ethyl butyrate (2 mM), which is a fragrant material, was added to the solution to obtain a complex (cucurbit[7]uril:ethyl butyrate=1:1). The bonding of diallyldisulfide with cucurbituril according to the addition of diallyldisulfide, which is an odor material, and the release of ethyl butyrate according to the addition of diallyldisulfide were evaluated comparing the 1H-NMR peak of the complex after the addition of diallyldisulfide with the 1H-NMR peak of the complex before the addition of diallyldisulfide.\nCucurbit[7]uril was dissolved in distilled water to obtain a 4 mM cucurbit[7]uril aqueous solution. Menthol (4 mM), which is a fragrant material, was added to the solution to obtain a complex (cucurbit[7]uril:menthol=1:1). The bonding of diaminohexane with cucurbituril according to the addition of diaminohexane, which is an odor material, and the release of menthol according to the addition of diaminohexane were evaluated comparing the 1H-NMR peak of the complex after the addition of diaminohexane with the 1H-NMR peak of the complex before the addition of diaminohexane.\nCucurbit[7]uril was dissolved in distilled water to obtain a 4 mM cucurbit[7]uril aqueous solution. Hexanal (4 mM), which is a fragrant material, was added to the solution to obtain a complex (cucurbit[7]uril:hexanal=1:1). The bonding of diaminohexane with cucurbituril according to the addition of diaminohexane, which is an odor material, and the release of hexanal according to the addition of diaminohexane were evaluated comparing the 1H-NMR peak of the complex after the addition of diaminohexane with the 1H-NMR peak of the complex before the addition of diaminohexane."}}, "data": [{"molecule": "cucurbit[7]uril", "values": [{"measurement": "solubility in water", "setting": "[1]", "result": "2˜3×10^−2 M"}, {"measurement": "complex formation with menthol (FIG. 2)", "setting": "[2]", "result": "strongly makes a complex with menthol"}]}, {"molecule": "CC1CCC(C(C)C)C(O)C1", "note": "(stereo not shown) [menthol]", "values": [{"measurement": "release of menthol from the complex (FIG. 4)", "setting": "[3]; cucurbit[7]uril:menthol=1:1, 4 mM aqueous solution, diaminohexane added", "result": "released from the complex"}]}, {"molecule": "CCCC(=O)OCC", "note": "[ethyl butyrate]", "values": [{"measurement": "release of ethyl butyrate from the complex (FIG. 3)", "setting": "[3]; cucurbit[7]uril:ethyl butyrate=1:1, 2 mM aqueous solution, diallyldisulfide added", "result": "released from the complex"}]}, {"molecule": "O=C1N2CN3C(=O)N4CN5C(=O)N6CN7C(=O)N8CN9C(=O)N%10CN%11C(=O)N%12CN1C1C2N2CN%13C(=O)N(CN%14C(=O)N(CN%15C(=O)N(CN%16C(=O)N(CN%17C(=O)N(CN1C2=O)C%12C%11%17)C%10C9%16)C8C7%15)C6C5%14)C4C3%13", "note": "(stereo not shown) [cucurbit[6]uril]", "values": [{"measurement": "complex formation with menthol (FIG. 2)", "setting": "[2]", "result": "barely makes a complex with menthol"}]}, {"molecule": "O=C1N2CN3C(=O)N4CN5C(=O)N6CN7C(=O)N8CN9C(=O)N%10CN%11C(=O)N%12CN%13C(=O)N%14CN%15C(=O)N%16CN1C1C2N2CN%17C(=O)N(CN%18C(=O)N(CN%19C(=O)N(CN%20C(=O)N(CN%21C(=O)N(CN%22C(=O)N(CN%23C(=O)N(CN1C2=O)C%16C%15%23)C%14C%13%22)C%12C%11%21)C%10C9%20)C8C7%19)C6C5%18)C4C3%17", "note": "(stereo not shown) [cucurbit[8]uril]", "values": [{"measurement": "complex formation with menthol (FIG. 2)", "setting": "[2]", "result": "weakly makes a complex with menthol"}]}, {"molecule": "CCCCCC=O", "note": "[hexanal]", "values": [{"measurement": "release of hexanal from the complex (FIG. 5)", "setting": "[3]; cucurbit[7]uril:hexanal=1:1, 4 mM aqueous solution, diaminohexane added", "result": "released from the complex"}]}, {"molecule": "NCCCCCCN", "note": "[diaminohexane]", "values": [{"measurement": "bonding of diaminohexane with cucurbituril (FIG. 5)", "setting": "[3]; added to cucurbit[7]uril:hexanal=1:1 complex, 4 mM aqueous solution", "result": "makes a complex with cucurbituril"}, {"measurement": "bonding of diaminohexane with cucurbituril (FIG. 4)", "setting": "[3]; added to cucurbit[7]uril:menthol=1:1 complex, 4 mM aqueous solution", "result": "makes a complex with cucurbituril"}]}, {"molecule": "C=CCSSCC=C", "note": "[diallydisulfide, diallyldisulfide]", "values": [{"measurement": "bonding of diallyldisulfide with cucurbituril (FIG. 3)", "setting": "[3]; added to cucurbit[7]uril:ethyl butyrate=1:1 complex, 2 mM aqueous solution", "result": "makes a complex with cucurbituril"}]}]}
